Laboratory results taken from US5677148A (priority 1995, dated 1997).
Where two headings read alike, the source gives them in different places.

System: A431 cells
Experiment: Sensitivity of DAB-EGF chimeric toxin cytotoxicity to chloroquine ([3H]leucine incorporation)
Details: for activity at 10 µM: Homo sapiens; for Percent of Control Incorporation: 20-hour incubation
Method: To determine if the cytotoxicity of DAB486 EGF and DAB389 EGF is also dependent upon the same pathway, A431 cells were plated in sextuplicate wells of 96 well plates containing DAB486 EGF, DAB389 EGF or DMEM+10% FCS in the absence or presence of chloroquine (10^-5 M) (Sigma). […] Following a 20-hour incubation at 37° C., the cells were labeled with [^3 H] leucine, trypsinized, harvested onto glass fiber filter mats and counted.

`CCN(CC)CCCC(C)Nc1ccnc2cc(Cl)ccc12` (stereo not shown) [Chloroquine] was tested, and the activity at 10 µM (A-431, read-out: Percent of Control Incorporation, chloroquine 10^-5 M, DAB389 EGF concentration 0, 20-hour incubation at 37° C., [3H]leucine, mean of three experiments) was 73%, the activity at 10 µM (A-431, read-out: Percent of Control Incorporation, chloroquine 10^-5 M, DAB486 EGF concentration 0, 20-hour incubation at 37° C., [3H]leucine, mean of three experiments) was 86% and the “Percent of Control Incorporation” value (chloroquine 10^-5 M with DAB389 EGF 10^-11 M, [3H]leucine (no addition: 4)) was 61%. The “Percent of Control Incorporation” value (chloroquine 10^-5 M with DAB389 EGF 10^-12 M, [3H]leucine (no addition: 57)) was 100%, the “Percent of Control Incorporation” value (chloroquine 10^-5 M with DAB486 EGF 10^-8 M, [3H]leucine (no addition: 5)) was 60% and the “Percent of Control Incorporation” value (chloroquine 10^-5 M with DAB486 EGF 10^-9 M, [3H]leucine (no addition: 25)) was 96%. For the same molecule, the “Effect on the cytotoxicity of DT-EGF chimeric toxins” value (chloroquine 10^-5 M, A431 cells, DAB486 EGF or DAB389 EGF) was “blocks the cytotoxicity”.
